{"source": "patent US20200352912A1", "about": "“ANTIMICROBIAL COMPOSITIONS AND METHODS OF USING THE SAME” (The Board Of Supervisors Of Louisiana State University And …, priority 2018, published 2020)", "key": {"[1]": {"test_system": "dual-species biofilm with C. albicans", "experiment": "biofilm formation on polystyrene (XTT, CFU)", "type": "cell-based, C. albicans and S. aureus", "procedure": "The effect of L-161,982 on biofilm formation was tested. Mono- and dual-species C. albicans and/or S. aureus biofilms were grown on 96-well plates for 24 h with the indicated concentration of L-161, 982. After incubation, metabolic activity of biofilms was quantified by the XTT assay (A) and then biofilms were disrupted to determine live colony forming units (CFU) (B). The results are cumulative of three independent experiments with duplicate samples. Statistics was performed using One-way ANOVA with the Tukey post-hoc test for the XTT assay. The Mann-Whitney U test was used to analyze CFU data. Significance is indicated as follows: ns—not significant, *P<0.05; *** P<0.001. Error bars represent standard deviation.\nFollowing growth as described above, microbes were washed in phosphate-buffered saline (PBS) by centrifugation, counted on a hemocytometer, and adjusted to 2×10^7 CFU/ml in RPMI buffered with MOPS (165 mM). […]\nThe XTT reduction assay was used to determine the metabolic activity of biofilms following treatment with L-161, 982 (17). Briefly, wells were washed once in PBS, and plates incubated at 37° C. for 2 h with 200 μl XTT working reagent (0.5 mg/ml XTT and 1 μM Menadione) and the resulting absorbance measured at 490 nm on a microplate spectrophotometer. […]"}, "S. aureus": {"test_system": "S. aureus", "experiment": "cytoplasmic leakage assay (OD260)", "type": "cell-based, Staphylococcus aureus", "conditions": "50 μg/ml", "procedure": "S. aureus was grown shaking at 37° C. in PBS alone, with 50 μg/ml L-161, 982 or with 4 μg/ml Chlorhexidine (positive control). The appearance of nucleic acid in culture supernatants was measured by OD260 at the indicated times. Data are expressed as change in absorbance at 260 nm compared to control (AA260). Data presented is cumulative of two independent experiments.\nCytoplasmic leakage assay. Cytoplasmic leakage assays were performed as previously described with modifications (11). Briefly, S. aureus was cultured to mid-log phase in TSB with shaking at 37° C. Bacteria were then harvested and resuspended in PBS to a concentration of ˜108/ml. Cultures were treated with L-161,982 (50 μg/ml) or Chlorhexidine (4 μg/ml), a positive control, and incubated at 37° C. with shaking. Culture supernatants were monitored over time for cytoplasmic leakage via OD260 measurements using a spectrophotometer (Biomate 3S, Thermo Scientific). For this, aliquots were removed at 0.5, 1, 2, and 3 hours and centrifuged for 5 min at 10,000×g at room temperature to remove cellular debris before taking OD260 measurements. Negative control cultures containing no drug were used to calculate change in absorbance (AA260) at each time point."}, "S. aureus strain 43300": {"test_system": "S. aureus strain 43300", "experiment": "staphyloxanthin assay", "type": "cell-based, Staphylococcus aureus", "procedure": "Pigment (staphyloxanthin) levels were measured from cultures grown in Mueller-Hinton broth+/−L-161, 982 at 37° C. for 24 h. A) Macroscopic analysis of S. aureus pigment production. B) Pigment was extracted in methanol and optical density measured at 450 nm. Data shown are representative of two independent experiments. *** p<0.001 control vs. drug-treated.\nStrains and growth conditions. The methicillin-resistant S. aureus strain NRS383 was obtained from the Network on Antimicrobial Resistance in S. aureus (NARSA) data bank. As NRS383 has little or no hemolytic activity or pigmentation, S. aureus strain 43300 (ATCC) was used for the hemolysis and staphyloxanthin assays. Frozen stocks were obtained at −80° C. and streaked onto trypticase soy agar (TSA) plates at 37° C. prior to use. A single colony was transferred to 10 ml of trypticase soy broth (TSB) and shaken at 37° C. overnight. On the following day, the overnight culture was diluted 1:100 in fresh growth medium and shaken at 37° C. for 3 h to obtain cells in mid-log growth phase.\nStaphyloxanthin Assay. S. aureus was diluted 100-fold in 50 ml of TSB containing 50 or 100 μg/ml of L-161,982 and cultured shaking at 37° C. for 48 h. Control cultures were grown in broth alone. […] Cells from each culture were counted and normalized. […] Optical densities of supernatants were measured at 465 nm using a spectrophotometer."}, "EP3": {"molecular_target": "EP3 (Homo sapiens, UniProt P43115)", "sequence (P43115 whole entry)": "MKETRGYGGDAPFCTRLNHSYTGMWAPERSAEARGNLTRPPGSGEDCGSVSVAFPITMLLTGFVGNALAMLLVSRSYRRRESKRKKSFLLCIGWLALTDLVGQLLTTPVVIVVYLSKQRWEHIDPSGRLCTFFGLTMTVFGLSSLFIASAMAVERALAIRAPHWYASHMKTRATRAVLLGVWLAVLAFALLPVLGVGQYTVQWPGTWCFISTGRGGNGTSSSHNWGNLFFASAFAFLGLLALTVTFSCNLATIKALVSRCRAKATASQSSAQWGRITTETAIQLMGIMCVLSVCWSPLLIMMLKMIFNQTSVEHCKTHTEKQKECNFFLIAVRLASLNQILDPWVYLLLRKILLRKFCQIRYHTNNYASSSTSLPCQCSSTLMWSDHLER", "conditions": "cited from earlier work"}}}
{"molecule": "CCCCc1nn(-c2ccccc2C(F)(F)F)c(=O)n1Cc1ccc(-c2ccccc2S(=O)(=O)NC(=O)c2sccc2C)cc1", "note": "[L-161, 982, N-[[4′-[[3-Butyl-1,5-dihydro-5-oxo-1-[2-(trifluoromethyl)phenyl]-4H-1,2,4-triazol-4-yl]methyl][1,1′-biphenyl]-2-yl]sulfonyl]-3-methyl-2-thiophenecarboxamide]", "values": [{"measurement": "inhibitory effect in dual-species biofilm", "setting": "[1]", "value": "no inhibitory effect"}, {"measurement": "OD260 values of culture supernatants", "setting": "S. aureus", "value": "did not increase"}, {"measurement": "pigmentation (staphyloxanthin)", "setting": "S. aureus strain 43300", "value": "loss of yellow pigmentation"}, {"measurement": "Ki", "setting": "EP3", "value": 1900, "unit": "nM"}]}
